From ChEMBL document CHEMBL5029185, “Discovery of Novel Polycyclic Heterocyclic Derivatives from Evodiamine for the Potential Treatment of Triple-Negative Breast Cancer” (J Med Chem, 2021)
Calls of active or inactive are those of the source. No cut-off for these calls is given here.

Key:
[1] = test system: MDA-MB-231; experiment: Antiproliferative activity against human MDA-MB-231 cells assessed as inhibition rate at 100 uM incubated for 72 hrs by MTT assay; assay type: functional
[2] = test system: MDA-MB-231; experiment: Antiproliferative activity against human MDA-MB-231 cells assessed as inhibition rate at 10 uM incubated for 72 hrs by MTT assay; assay type: functional
[3] = test system: MDA-MB-231; experiment: Antiproliferative activity against human MDA-MB-231 cells assessed as inhibition rate at 1 uM incubated for 72 hrs by MTT assay; assay type: functional
[4] = test system: HCT-116; experiment: Antiproliferative activity against human HCT-116 cells assessed as inhibition rate incubated for 72 hrs by MTT assay; assay type: functional, cell-based; conditions: HCT-116, 72 h
[5] = test system: MDA-MB-435; experiment: Antiproliferative activity against human MDA-MB-435 cells assessed as inhibition rate incubated for 72 hrs by MTT assay; assay type: functional, cell-based; conditions: MDA-MB-435, 72 h
[6] = test system: MDA-MB-231; experiment: Antiproliferative activity against human MDA-MB-231 cells assessed as inhibition rate incubated for 72 hrs by MTT assay; assay type: functional, cell-based; conditions: MDA-MB-231, 72 h
[7] = test system: A549; experiment: Antiproliferative activity against human A549 cells assessed as inhibition rate incubated for 72 hrs by MTT assay; assay type: functional, cell-based; conditions: A549, 72 h
[8] = target: T1, DNA topoisomerase 1 (Homo sapiens) (UniProt P11387); experiment: Inhibition of topoisomerase 1 (unknown origin) assessed as relaxation of supercoiled plasmid pBR322 DNA upto 500 uM incubated for 15 mins by agarose gel electrophoresis; conditions: dose microM <=500, time 15.0 min
T1 sequence (whole entry): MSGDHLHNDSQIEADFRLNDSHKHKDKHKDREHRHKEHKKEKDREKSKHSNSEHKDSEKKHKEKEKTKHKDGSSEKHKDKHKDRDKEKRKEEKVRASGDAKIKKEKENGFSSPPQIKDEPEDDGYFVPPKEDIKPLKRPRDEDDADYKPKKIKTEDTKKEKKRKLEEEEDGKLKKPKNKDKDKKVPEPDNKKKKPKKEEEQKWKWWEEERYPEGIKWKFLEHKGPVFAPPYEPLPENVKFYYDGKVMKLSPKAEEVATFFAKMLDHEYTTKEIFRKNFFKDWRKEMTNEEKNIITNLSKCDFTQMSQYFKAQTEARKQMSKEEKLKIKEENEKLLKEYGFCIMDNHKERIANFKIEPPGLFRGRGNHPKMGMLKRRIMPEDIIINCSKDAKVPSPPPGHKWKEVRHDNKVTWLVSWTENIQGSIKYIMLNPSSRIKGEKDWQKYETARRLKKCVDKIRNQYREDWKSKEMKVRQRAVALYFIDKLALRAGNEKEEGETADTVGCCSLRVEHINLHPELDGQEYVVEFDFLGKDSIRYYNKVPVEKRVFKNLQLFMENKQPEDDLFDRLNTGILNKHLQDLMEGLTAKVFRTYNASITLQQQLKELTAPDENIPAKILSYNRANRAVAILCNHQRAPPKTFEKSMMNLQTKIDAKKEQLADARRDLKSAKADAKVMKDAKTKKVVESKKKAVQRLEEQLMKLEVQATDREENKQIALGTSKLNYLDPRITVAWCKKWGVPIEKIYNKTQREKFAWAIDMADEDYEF

[9] = target: T1, DNA topoisomerase 1 (Homo sapiens); experiment: Induction of topoisomerase 1-DNA cleavable complex in human MDA-MB-231 cells assessed as increase in cleavable complex by measuring SDS-K+ precipitable complex at 15 uM measured up to 15 hrs by liquid scintillation counting analysis; assay type: cell-based; conditions: time hrs <=15
[10] = test system: MDA-MB-231; experiment: Antiproliferative activity against human MDA-MB-231 cells transfected with siRNA-Top1 assessed as cell viability by MTT assay; assay type: functional, cell-based
[11] = Selectivity index, ratio of IC50 for human MCF-10A cells to IC50 for human MDA-MB-231 cells
[12] = test system: LoVo; experiment: Antiproliferative activity against human LoVo cells assessed as inhibition rate incubated for 72 hrs by MTT assay; assay type: functional, cell-based
[13] = test system: MDA-MB-231; experiment: Antiproliferative activity against human MDA-MB-231 cells transfected with siRNA-Ctrl assessed as cell viability by MTT assay; assay type: functional, cell-based
[14] = test system: 4T1; experiment: Antiproliferative activity against mouse 4T1 cells assessed as inhibition rate incubated for 72 hrs by MTT assay; assay type: functional, cell-based; conditions: 4T1, 72 h
[15] = test system: H22; experiment: Antiproliferative activity against mouse H22 cells assessed as inhibition rate incubated for 72 hrs by MTT assay; assay type: functional, cell-based; conditions: H22, 72 h
[16] = test system: MCF7; experiment: Antiproliferative activity against human MCF7 cells assessed as inhibition rate incubated for 72 hrs by MTT assay; assay type: functional, cell-based; conditions: MCF7, 72 h
[17] = test system: MCF-10A; experiment: cells; assay type: ADME, cell-based; conditions: Homo sapiens, 72 h
Description: Antiproliferative activity against human MCF-10A cells assessed as inhibition rate incubated for 72 hrs by MTT assay

[18] = Ratio of IC50 for antiproliferative activity against human MDA-MB-231 cells transfected with siRNA-Top1 to IC50 for antiproliferative activity against human MDA-MB-231 cells transfected with siRNA-Ctrl assessed as cell viability by MTT assay; assay type: functional
[19] = test system: HepG2; experiment: Antiproliferative activity against human HepG2 cells assessed as inhibition rate incubated for 72 hrs by MTT assay; assay type: functional, cell-based; conditions: HepG2, 72 h
[20] = test system: HEK293; experiment: cells; assay type: ADME, cell-based; conditions: Homo sapiens, HEK293, 72 h
Description: Antiproliferative activity against HEK293 cells assessed as inhibition rate incubated for 72 hrs by MTT assay

SMILES	inhibition at 100 µM [1] [%]	inhibition at 10 µM [2] [%]	inhibition at 1 µM [3] [%]	IC50 [4] [nM]	IC50 [5] [nM]	IC50 [6] [nM]	IC50 [7] [nM]	further results
COc1ccc2oc3c(c2c1)CCN1C(=O)c2cc(Cl)cc(Cl)c2OC31 (centres undefined)	12.1	5.5	8.6					
COc1ccc2oc3c(c2c1)CCN1C(=O)c2ccccc2OC31 (centres undefined)	36.6	10.6	6					
COc1ccc2nc3c(cc2c1)CN1C(=O)c2ccccc2N(C)C31 (centres undefined)	80.7	11.9	7.6					
COc1ccc2oc3c(c2c1)CCN1C(=O)c2cccc(C)c2OC31 (centres undefined)	15	11.9	7.1					
Cc1cccc2c1OC1c3oc4ccc(O)cc4c3CCN1C2=O (centres undefined)	97.4	66.5	60.6	3450	1950	2520	6790	Activity [8]: inactive
CC[C@@]1(O)C(=O)OCc2c1cc1n(c2=O)Cc2cc3ccccc3nc2-1 [CAMPTOTHECIN]					310	420	100	Activity [9]: Active; IC50 [10]: > 6400 nM; selectivity ratio [11]: 5.2; IC50 [12]: 1540 nM; IC50 [13]: 264 nM; IC50 [14]: 170 nM; IC50 [15]: 540 nM; IC50 [16]: 560 nM; IC50 [17]: 2190 nM; Ratio IC50 [18]: 24; IC50 [19]: 110 nM
COc1ccc2oc3c(c2c1)CCN1C(=O)c2cc(Br)ccc2OC31 (centres undefined)	13	9.2	6.8					
O=C(O)c1ccc2[nH]c3c(c2c1)CCN1C(=O)c2ccccc2OC31 (centres undefined)	39.6	11.2	9.7					
O=C1c2ccccc2OC2c3oc4ccc(O)cc4c3CCN12 (centres undefined)	96.5	61.2	55.1	1260	470	860	4280	Activity [8]: inactive
O=C1c2cc(Cl)cc(Cl)c2OC2c3oc4ccc(O)cc4c3CCN12 (centres undefined)	96.9	59.5	32.7	6090	2330	3730	7580	Activity [8]: inactive
COc1ccc2oc3c(c2c1)CCN1C(=O)c2ccc(C)cc2OC31 (centres undefined)	41.5	19.2	7.5					
COc1ccc2oc3c(c2c1)CCN1C(=O)c2cc(Cl)ccc2OC31 (centres undefined)	15.9	7.3	2.3					
COC(=O)c1ccc2[nH]c3c(c2c1)CCN1C(=O)c2ccccc2OC31 (centres undefined)	45.2	15.7	12.6					
Cc1ccc2c(c1)OC1c3oc4ccc(O)cc4c3CCN1C2=O (centres undefined)	94	64.8	62.7	4710	1140	1050	10500	Activity [8]: inactive
O=C1c2cc(Br)ccc2OC2c3oc4ccc(O)cc4c3CCN12 (centres undefined)	94.5	83.1	75.7	1710	810	1160	4140	Activity [8]: inactive
CN1c2ccccc2C(=O)N2CCc3c([nH]c4ccccc34)C21 (centres undefined)	73.3	53.3	38.9	32700	6300	13300	77200	selectivity ratio ([11]; MCF-10A cells versus MDA-MB-231 cells): > 10.7; IC50 [20]: > 100000 nM; IC50 [17]: > 100000 nM
CN1c2ccccc2C(=O)N2Cc3cc4cc(O)ccc4nc3C21 (centres undefined)	89.9	19.8	6.3					
